Measurements taken from ChEMBL document CHEMBL1144820, “Bipinnatins K-Q, minor cembrane-type diterpenes from the West Indian Gorgonian Pseudopterogorgia kallos: isolation, structure assignment, and evaluation of biological activities” (J Nat Prod, 2008).

What was measured:
SR = assay: Cytotoxicity against human SR cells; assay type: functional
RPMI-8226 = assay: Cytotoxicity against human RPMI8226 cells; assay type: functional
MOLT-4 = assay: Cytotoxicity against human MOLT4 cells; assay type: functional
CCRF-CEM = assay: Cytotoxicity against human CCRF-CEM cells; assay type: functional
Plasmodium falciparum = assay: Antimicrobial activity against chloroquine-resistant Plasmodium falciparum; assay type: functional, organism-based
[1] = Inhibition of Aplysia californica nicotinic acetylcholine receptor
[2] = tested on: Mycobacterium tuberculosis; assay: Antimicrobial activity against Mycobacterium tuberculosis H37Rv at 128 ug/ml; assay type: functional

For `C=C(C=O)[C@H]1CC(=O)[C@@H](C(=O)OC)[C@@H]2O[C@@](C)(CC2=O)C[C@@H]2OC(=O)[C@]3(O[C@@H]23)[C@@H](OC(C)=O)C1` [BIPINNATIN Q], which GI50 (SR) is on record?
Its GI50 is 2600 nM.

And the GI50 (RPMI-8226)?
Its GI50 is 4.1 µM.

And the GI50 (MOLT-4)?
The GI50 was 4.2 µM.

And the GI50 (CCRF-CEM)?
Its GI50 is 5.8 µM.

What about the IC50 (Plasmodium falciparum) of the same molecule?
Its IC50 is greater than 10 µg/mL.

For `C=C(C=O)[C@H]1CC2=C(C(=O)OC)C=C(O2)[C@H]2O[C@]2(C)C[C@@H]2OC(=O)[C@]3(O[C@@H]23)[C@H](OC(C)=O)C1` [BIPINNATIN E], which IC50 [1] is on record?
The IC50 was 230 nM.

Which IC50 (Plasmodium falciparum) does the source give for `C=C(C)[C@@H]1CCC2=C[C@H](C[C@@]3(C)O[C@@H]3[C@]3(O)C=C(C)C(=O)[C@H]1O3)OC2=O` [BIPINNATIN N] here?
The IC50 was greater than 10 µg/mL.

For `C=C(C(=O)OC)[C@@H]1C[C@@H](OC(C)=O)C2=C[C@H](C[C@@]3(C)O[C@@H]3[C@@]3(O)C=C(C)[C@](O)(O3)[C@H]1OC(C)=O)OC2=O` [BIPINNATIN M], which inhibition at 128 µg/mL [2] is on record?
Its inhibition at 128 µg/mL is 20%.

What about the IC50 (Plasmodium falciparum) of the same molecule?
Its IC50 is greater than 10 µg/mL.
